smiles,measurement,value
"c1cc(-c2cnn3cc(-c4ccc(OCCN5CCOCC5)cc4)cnc23)cs1 [Example 4, 3-(3-thienyl)-6-(4-(2-(4-morpholinyl)ethoxy)phenyl) pyrazolo(1,5-A)pyrimidine]",melting point,149 to 151 °C
